From patent publication US10988792B2, “Methods for antimicrobial resistance determination” (bioMerieux, Inc., priority 2009, dated 2021)

What was measured:
[1] = system: S. aureus strains ATCC 25923 (MSSA) and D14906 (MRSA); assay: Titration of BOCILLIN-FL binding
Protocol: Samples of S. aureus strains ATCC 25923 (MSSA) and D14906 (MRSA) were grown in BacT/ALERT SA culture media at 37° C. for about 6 hours until an OD 660 nm of about 0.35 was reached. Dilutions of BOCILLIN™-FL (0.1 ml) were prepared in SA medium and placed into culture tubes. Samples of the bacterial suspension (0.9 ml) were added to the tubes and mixed. The tubes were capped and placed in a 37° C. incubator for 60 minutes. Samples (1.0 ml) were transferred to microfuge tubes containing 0.2 ml of the same oil blend used in Example 1, centrifuged for 1 minute, aspirated, and the pellet was resuspended in 0.1 ml PBS and then added to 3.0 ml PBS, pH 7.4 in an acrylic cuvette. The sample was scanned in the FluoroLog-3 system at an excitation wavelength of 490 nm and the fluorescence emission at 510 nm was recorded.

[2] = system: S. aureus strains ATCC 25923 (MSSA) and D14906 (MRSA); assay: Time course of BOCILLIN-FL binding
Protocol: Samples of S. aureus strains ATCC 25923 (MSSA) and D14906 (MRSA) were grown in BacT/ALERT SA culture media at 37° C. until exponential growth was reached (8-10 hours). The OD 660 nm of each culture was measured and both suspensions were adjusted to 0.50 with pre-warmed SA media. BOCILLIN™-FL was diluted in pre-warmed SA media, filtered through a 0.2 μm filter and kept at 37° C. Samples of the bacteria (9.0 ml) were mixed with 1.0 ml of 100 μM BOCILLIN™-FL, mixed well, and dispensed as ten 1.0 ml aliquots into microfuge tubes containing 0.2 ml of the same oil blend used in Example 1. All tubes except the T0 tube were placed at 37° C. Tubes were removed and processed at 6, 11, 16, 22, 45, 60, 75, and 91 minutes. Each tube was centrifuged for 1 minute, the supernatant was aspirated, and the pellet was resuspended in 0.1 ml PBS and then added to 3.0 ml PBS in an acrylic cuvette. The sample was scanned in the FluoroLog-3 system at an excitation wavelength of 490 nm and the fluorescence emission at 510 nm was recorded.

[3] = system: S. aureus ATCC 25923 (MSSA); assay: BOCILLIN-FL metabolic labeling (culturing cells with BOCILLIN-FL); type: binding; settings: for MSSA/MRSA Ratio: MSSA (25923)/MRSA (D14906); for BOCILLIN-FL binding, fluorescence emission at 510 nm (excitation 490 nm), raw data: MSSA (25923)
Protocol: (§1) Two experimental approaches were used to test BOCILLIN™-FL (Molecular Probes, Invitrogen) binding to S. aureus: (1) treating cells with sodium hydroxide (NaOH), neutralizing, adding BOCILLIN™-FL, then separating the cells (harsh pretreatment); and (2) culturing cells with BOCILLIN™-FL, then separating the cells (metabolic labeling).
(§2) For the second method, the two bacterial suspensions (13 ml) were mixed with BOCILLIN™-FL (175 μl of 1.0 mg/ml stock). The mixtures were aliquoted in 1.0 ml samples into microfuge tubes containing 0.2 ml of oil blend. The tubes were incubated at 37° C. for various time-points (keeping 1 set of tubes on ice for the T0 time-point). One set of tubes was removed at 30 minutes and the cells separated from free BOCILLIN™-FL by washing twice with PBS. One set of tubes was removed at 30, 52, 68, and 86 minutes and the cells separated from free BOCILLIN™-FL by centrifugation through the oil blend. The cells were recovered and resuspended in 3 ml PBS. The samples were scanned in the FluoroLog-3 system at an excitation wavelength of 490 nm and the fluorescence emission at 510 nm was recorded.

S. aureus D14906 (MRSA) = assay: as above; type: binding
Protocol: as §1, §2

[4] = system: S. aureus ATCC 25923 (Methicillin-Sensitive; MSSA); assay: BOCILLIN-FL binding after NaOH treatment (harsh pretreatment), oil blend separation; settings: for MSSA/MRSA Ratio: MSSA (25923)/MRSA (D14906); for BOCILLIN-FL binding, fluorescence emission at 510 nm (excitation 490 nm): MSSA (25923)
Protocol: as §1
(§3) For the first method, S. aureus strains ATCC 25923 (Methicillin-Sensitive; MSSA) and D14906 (Methicillin-Resistant; MRSA) were cultured until exponential growth (6 hours) in tryptic soy broth (TSB). Samples of each suspension (0.9 ml in TSB) and 0.1 N NaOH (0.1 ml; ±20 μl 7.5% TRITON® X100-R) were vortexed for 5 seconds, then either neutralized immediately or after 1 minute by adding 1 M KH2PO4 (0.125 ml) and vortexing for 5 seconds. BOCILLIN™-FL (15 μl of 1.0 mg/ml) was added to the suspension, which was then vortexed, and incubated for 5 minutes at room temperature. Unbound BOCILLIN™-FL was removed by centrifuging the mixture over 0.2 ml of an oil blend optimized to separate microorganisms from culture media (1.0 part of Type DF microscope immersion oil+0.875 parts of Drakeol 5 mineral oil) at 10,000 rpm for 1 minute. The supernatant and oil layer were removed and the pellet resuspended in 3.0 ml PBS, pH 7.4. The sample was scanned in the FluoroLog-3 system at an excitation wavelength of 490 nm and the fluorescence emission at 510 nm was recorded.

[5] = system: S. aureus D14906 (Methicillin-Resistant; MRSA); assay: as above
Protocol: as §1, §3

[6] = 30′ at 37° C., washed x 2 (PBS)

Shape of the MSSA binding curve ([1]; MSSA strain, second order polynomial curve fit): biphasic
Difference in binding between the MSSA and MRSA strains ([1]; at about 0.5 μM BOCILLIN-FL): 4 fold
Difference in binding between the MSSA and MRSA strains ([1]; at about 5 μM BOCILLIN-FL): 3 fold
Time at which maximal binding was measured ([2]; room temperature (the T0 tube), oil method): 5 min
MSSA/MRSA Ratio ([4]; a = 5″ at pH 12): 2.3
MSSA/MRSA Ratio ([4]; b = 60″ at pH 12): 1.1
MSSA/MRSA Ratio ([4]; c = 5″ at pH 12 + TX100): 1.5
MSSA/MRSA Ratio ([4]; d = 60″ at pH 12 + TX100): 2.0
BOCILLIN-FL binding, fluorescence emission at 510 nm (excitation 490 nm) ([4]; a = 5″ at pH 12): 3.7 × 10^6
BOCILLIN-FL binding, fluorescence emission at 510 nm (excitation 490 nm) ([4]; b = 60″ at pH 12): 1.0 × 10^6
BOCILLIN-FL binding, fluorescence emission at 510 nm (excitation 490 nm) ([4]; c = 5″ at pH 12 + TX100): 0.9 × 10^6
BOCILLIN-FL binding, fluorescence emission at 510 nm (excitation 490 nm) ([4]; d = 60″ at pH 12 + TX100): 0.8 × 10^6
BOCILLIN-FL binding, fluorescence emission at 510 nm (excitation 490 nm) ([5]; a = 5″ at pH 12): 1.6 × 10^6
BOCILLIN-FL binding, fluorescence emission at 510 nm (excitation 490 nm) ([5]; b = 60″ at pH 12): 0.9 × 10^6
BOCILLIN-FL binding, fluorescence emission at 510 nm (excitation 490 nm) ([5]; c = 5″ at pH 12 + TX100): 0.6 × 10^6
BOCILLIN-FL binding, fluorescence emission at 510 nm (excitation 490 nm) ([5]; d = 60″ at pH 12 + TX100): 0.4 × 10^6
SMILES: Cc1cc(C)n2c1C=C1C=CC(CCC(=O)Nc3ccc(OCC(=O)N[C@@H]4C(=O)N5[C@@H]4SC(C)(C)[C@@H]5C(=O)[O-])cc3)=[N+]1[B-]2(F)F.[Na+] [BOCILLIN™-FL]
BOCILLIN-FL bound by the MSSA strain, more than the MRSA strain, per cell basis ([1]; depending on the BOCILLIN-FL concentration, 60 minutes at 37° C. (FIG. 3)): 2-4 fold
BOCILLIN-FL bound by the MSSA strain, more than the MRSA strain, per cell basis ([2]; 1.0 ml of 100 μM BOCILLIN-FL mixed with 9.0 ml bacteria, irrespective of the culture time): 2-3 times
BOCILLIN-FL bound by the MRSA strain, less than the MSSA strain, per cell basis ([3]; BOCILLIN-FL signal normalized to the microbial tryptophan signal (FIG. 1)): 3-4 fold
MSSA/MRSA Ratio ([3]; 30′ at 37° C., separation Oil): 5.60
MSSA/MRSA Ratio [3, 6]: 2.00
MSSA/MRSA Ratio ([3]; 52′ at 37° C., separation Oil): 5.35
MSSA/MRSA Ratio ([3]; 68′ at 37° C., separation Oil): 7.17
MSSA/MRSA Ratio ([3]; 86′ at 37° C., separation Oil): 4.48
MSSA/MRSA Ratio ([3]; T0 (ice), separation Oil): 2.36
BOCILLIN-FL binding, fluorescence emission at 510 nm (excitation 490 nm), raw data ([3]; 30′ at 37° C., separation Oil): 1,831,790
BOCILLIN-FL binding, fluorescence emission at 510 nm (excitation 490 nm), raw data [3, 6]: 410,830
BOCILLIN-FL binding, fluorescence emission at 510 nm (excitation 490 nm), raw data ([3]; 52′ at 37° C., separation Oil): 1,941,930
BOCILLIN-FL binding, fluorescence emission at 510 nm (excitation 490 nm), raw data ([3]; 68′ at 37° C., separation Oil): 2,481,450
BOCILLIN-FL binding, fluorescence emission at 510 nm (excitation 490 nm), raw data ([3]; 86′ at 37° C., separation Oil): 2,285,980
BOCILLIN-FL binding, fluorescence emission at 510 nm (excitation 490 nm), raw data ([3]; T0 (ice), separation Oil): 2,745,600
BOCILLIN-FL bound by the MRSA strain, less than the MSSA strain ([3]; raw data (Table 2), metabolic labeling): 2-7 fold
BOCILLIN-FL binding, fluorescence emission at 510 nm (excitation 490 nm), raw data (S. aureus D14906 (MRSA); 30′ at 37° C., separation Oil): 326.790
BOCILLIN-FL binding, fluorescence emission at 510 nm (excitation 490 nm), raw data (S. aureus D14906 (MRSA); [6]): 206,250
BOCILLIN-FL binding, fluorescence emission at 510 nm (excitation 490 nm), raw data (S. aureus D14906 (MRSA); 52′ at 37° C., separation Oil): 363,000
BOCILLIN-FL binding, fluorescence emission at 510 nm (excitation 490 nm), raw data (S. aureus D14906 (MRSA); 68′ at 37° C., separation Oil): 346,270
BOCILLIN-FL binding, fluorescence emission at 510 nm (excitation 490 nm), raw data (S. aureus D14906 (MRSA); 86′ at 37° C., separation Oil): 510,150
BOCILLIN-FL binding, fluorescence emission at 510 nm (excitation 490 nm), raw data (S. aureus D14906 (MRSA); T0 (ice), separation Oil): 1,163,240
